In patent US9271991B2, “Trimegestone (TMG) for treatment of preterm birth” (Dignity Health, priority 2010, dated 2016):
Where “and” joins values, the source holds several entries; their conditions need not be identical. Equal entries are not always repeated.

Legend:
[1] = tested on: pregnant rats (term delivery); test: Delay of term delivery in pregnant rats; format: in vivo, Sprague-Dawley rats; details: pregnant rats
Text: Timed-pregnant Sprague-Dawley rats (200-250 g) from Charles-River Laboratories (Wilmington, Mass., USA) were delivered to our animal care facilities on day 15 of gestation (day 1 being the day when a sperm plug was observed). The animals were housed separately, with free access to food and water and maintained on a constant 12-hour light-dark cycle. Control pregnant rats were spontaneously delivering on day 22 of gestation. The animals were randomly allocated into groups and sacrificed by carbon dioxide inhalation on day 5 postpartum or on day 25 of gestation in the groups with delayed delivery.
Pregnant rats (N=6 per group) were treated, when not otherwise mentioned, from day 20 of gestation until delivery. Single daily treatments were performed at 8 am and twice a day treatments at 8 am and 8 pm. Treatment began daily on day 20 of gestation with vehicles or: a) Topical P4 at various doses (4-30 mg/day, vehicle (v)=fish oil) or topical TMG ([…], v=fish oil; b) Subcutaneous (s.c.) P4 (0.5-4 mg/day, v=sesame oil) or s.c. TMG (0.5-2 mg/day, v=benzyl benzoate (BB) and castor oil (CO), 1:4). Delivery times were observed.
Subcutaneous treatments. All daily injections were by the subcutaneous route (s.c) in […] for the P4 treatments and benzyl benzoate (BB, 1 part): castor oil (CO, 4 parts) for the TMG group. P4 and TMG had dose ranges of 0.5 mg-4 mg per day and 0.5 mg-2 mg per day, respectively. Vehicles only are used in the control groups.
Topical treatments. Topical P4 and TMG (in fish oil and benzyl benzoate:castor oil (1:4), respectively) treatments were applied to the shaved back of the rat twice a day For topical treatments of P4 and TMG, dose range from 2 mg-30 mg per day and 0.005 to 0.5 mg per day, respectively.
Times of delivery of controls and treatment groups were determined as hours after 8 a.m. on day 22 of gestation. […] Delays in delivery less than 80 hours were calculated as less than 100% inhibition. The expulsion of a single pup was noted as delivery. Control groups spontaneously delivered on day 22 of gestation.
The Student's t test was used to compare the treatment groups with its specific control groups to determine the differences in delivery times. A 2-tailed probability value of P<0.05 was considered statistically significant.

[2] = tested on: pregnant guinea pigs (preterm delivery); test: PGE2-induced preterm delivery in pregnant guinea pigs; format: in vivo, Hartley guinea pigs; details: TMG 4 mg/day s.c. days 44-47; PGE2 3 mg/day days 46, 47; sacrifice day 48
Text: Pregnant guinea pigs, another model of pregnancy are also utilized as they more closely resemble the endocrine control of human pregnancy with progesterone levels in pregnancy maintained by the placenta as opposed to the ovaries, which is observed in pregnant rats.
Pregnant Hartley guinea pigs arrived at our facilities at 31-35 days gestation and housed in pairs, with free access to food and water and also maintained on a constant 12-hour light-dark cycle. The animals were euthanized with a combination of xylazine (Gemini; Burns Veterinary Supply Inc, Rockville Center, N.Y.) and ketamine HCL (Ketaset; Fort Dodge Laboratories Inc, Fort Dodge, Iowa). All procedures were approved by the Animal Care and Use Committee of the St. Joseph's Hospital and Medical Center in Phoenix, Ariz.
Pregnant guinea pigs (N=4-6 per group) were allocated into 4 groups (Vehicle (v) only, TMG only, PGE2 only, PGE2+TMG). PGE2 administration (3 mg/day s.c, v=saline) began daily on day 46 to day 47 of gestation. TMG administration (4 mg/day s.c v=BB:CO) began daily on day 44 until day 47 of gestation. All guinea pigs were sacrificed on day 48.

[3] = s.c. single daily treatment from day 20 of gestation
[4] = topical twice a day from day 20 of gestation

CC(=O)[C@H]1CC[C@H]2[C@@H]3CCC4=CC(=O)CC[C@]4(C)[C@H]3CC[C@]12C [P4, progesterone]
dose for complete block of delivery (80 hour delay, 100 percent inhibition), subcutaneous [1, 3]: 2 mg
dose for complete block of delivery, subcutaneous [1, 3]: 2 mg/day
dose for complete block of delivery (80 hour delay, 100 percent inhibition), topical [1, 4]: 15 mg
dose for complete block of delivery, topical [1, 4]: 15 mg/day

CCCCC[C@H](O)/C=C/[C@H]1[C@H](O)CC(=O)[C@@H]1C/C=C\CCCC(=O)O [PGE2, prostaglandin E2]
guinea pigs delivered (preterm) / treated, substance alone [2]: 2/3 and 4/6
